Data published in PubChem BioAssay AID2060501 (Molecular Pharmacology Branch, DTP, NCI, 2025).
Blank lines part the entries; values can stand above or below the molecule they belong to.

System: 282377-053-R-J1-PDC complex spheroids, viability
Test: Anticancer human tumor 282377-053-R-J1-PDC patient-derived colon adenocarcinoma cell line growth inhibition [GQUAD]
Details: for IC50: curve of first compound; for viability, T/C: stronger effect = lower value
Summary of the method: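 Multi-cell-type spheroids of tumor cells with HUVEC and mesenchymal stem cells, treated with drug combinations. Concentrations descend in half-log steps from near clinical Cmax, or from 10 microM where Cmax is unknown; viability read-out.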

[1] = second compound 0.0316 µM, first compound 0.0316 µM
[2] = second compound 0.0316 µM, first compound 0.316 µM
[3] = second compound 0.1 µM, first compound 0.0316 µM
[4] = second compound 0.1 µM, first compound 0.316 µM
[5] = second compound 0.316 µM, first compound 0.0316 µM
[6] = second compound 0.316 µM, first compound 0.316 µM
[7] = second compound 1 µM, first compound 0.0316 µM
[8] = second compound 1 µM, first compound 0.316 µM
[9] = second compound 3.16 µM, first compound 0.0316 µM
[10] = second compound 3.16 µM, first compound 0.316 µM
[11] = second compound 10 µM, first compound 0.0316 µM
[12] = second compound 10 µM, first compound 0.316 µM
[13] = second compound 0.0316 µM, first compound 0.1 µM
[14] = second compound 0.0316 µM, first compound 1 µM
[15] = second compound 0.0316 µM, first compound 3.16 µM
[16] = second compound 0.0316 µM, first compound 10 µM
[17] = second compound 0.1 µM, first compound 0.1 µM
[18] = second compound 0.1 µM, first compound 1 µM
[19] = second compound 0.1 µM, first compound 3.16 µM
[20] = second compound 0.1 µM, first compound 10 µM
[21] = second compound 0.316 µM, first compound 0.1 µM
[22] = second compound 0.316 µM, first compound 1 µM
[23] = second compound 0.316 µM, first compound 3.16 µM
[24] = second compound 0.316 µM, first compound 10 µM
[25] = second compound 1 µM, first compound 0.1 µM
[26] = second compound 1 µM, first compound 1 µM
[27] = second compound 1 µM, first compound 3.16 µM
[28] = second compound 1 µM, first compound 10 µM
[29] = second compound 3.16 µM, first compound 0.1 µM
[30] = second compound 3.16 µM, first compound 1 µM
[31] = second compound 3.16 µM, first compound 3.16 µM
[32] = second compound 3.16 µM, first compound 10 µM
[33] = second compound 10 µM, first compound 0.1 µM
[34] = second compound 10 µM, first compound 1 µM
[35] = second compound 10 µM, first compound 3.16 µM
[36] = second compound 10 µM, first compound 10 µM
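Note: spheroids exposed to compounds for 7 days before readout.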
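Throughout, for viability, T/C: percent of vehicle DMSO control viability with 100% = untreated-like growth.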

Structure (SMILES): Cc1[nH]c2ccccc2c1CCNCc1ccc(/C=C/C(=O)NO)cc1 + Cc1[nH]c2ccc(F)cc2c1-c1nc2c3cccnc3c3ncccc3c2[nH]1
- IC50 (second compound 0.0316 µM): > 316 nM
- IC50 (second compound 0.1 µM): > 316 nM
- IC50 (second compound 0.316 µM): > 316 nM
- IC50 (second compound 1 µM): > 316 nM
- IC50 (second compound 3.16 µM): 196 nM
- IC50 (second compound 10 µM): < 0.999 nM
- viability, T/C (second compound 0.0316 µM, first compound 0.000999 µM): 87.8%
- viability, T/C (second compound 0.0316 µM, first compound 0.00316 µM): 100%
- viability, T/C (second compound 0.0316 µM, first compound 0.00999 µM): 105%
- viability, T/C [1]: 90.3%
- viability, T/C (second compound 0.0316 µM, first compound 0.0999 µM): 93%
- viability, T/C [2]: 96.8%
- viability, T/C (second compound 0.1 µM, first compound 0.000999 µM): 97.4%
- viability, T/C (second compound 0.1 µM, first compound 0.00316 µM): 98.9%
- viability, T/C (second compound 0.1 µM, first compound 0.00999 µM): 79.9%
- viability, T/C [3]: 89.9%
- viability, T/C (second compound 0.1 µM, first compound 0.0999 µM): 74.6%
- viability, T/C [4]: 70.7%
- viability, T/C (second compound 0.316 µM, first compound 0.000999 µM): 102%
- viability, T/C (second compound 0.316 µM, first compound 0.00316 µM): 106%
- viability, T/C (second compound 0.316 µM, first compound 0.00999 µM): 74.6%
- viability, T/C [5]: 97.4%
- viability, T/C (second compound 0.316 µM, first compound 0.0999 µM): 97.8%
- viability, T/C [6]: 96.1%
- viability, T/C (second compound 1 µM, first compound 0.000999 µM): 116%
- viability, T/C (second compound 1 µM, first compound 0.00316 µM): 95.8%
- viability, T/C (second compound 1 µM, first compound 0.00999 µM): 93.8%
- viability, T/C [7]: 101%
- viability, T/C (second compound 1 µM, first compound 0.0999 µM): 87.9%
- viability, T/C [8]: 88.1%
- viability, T/C (second compound 3.16 µM, first compound 0.000999 µM): 70.8%
- viability, T/C (second compound 3.16 µM, first compound 0.00316 µM): 75.7%
- viability, T/C (second compound 3.16 µM, first compound 0.00999 µM): 60.9%
- viability, T/C [9]: 66.2%
- viability, T/C (second compound 3.16 µM, first compound 0.0999 µM): 67.1%
- viability, T/C [10]: 38.1%
- viability, T/C (second compound 10 µM, first compound 0.000999 µM): 32.5%
- viability, T/C (second compound 10 µM, first compound 0.00316 µM): 33.9%
- viability, T/C (second compound 10 µM, first compound 0.00999 µM): 52.2%
- viability, T/C [11]: 34.4%
- viability, T/C (second compound 10 µM, first compound 0.0999 µM): 22.3%
- viability, T/C [12]: 25.2%

- IC50 (second compound 0.0316 µM): 97.4 nM
- IC50 (second compound 0.1 µM): 76.9 nM
- IC50 (second compound 0.316 µM): < 31.6 nM
- IC50 (second compound 1 µM): < 31.6 nM
- IC50 (second compound 3.16 µM): < 31.6 nM
- IC50 (second compound 10 µM): < 31.6 nM
Structure (SMILES): CC1COCCN1c1cc(-c2ccnn2C)c2ccnc(-c3ccn[nH]3)c2n1 (stereo not drawn) + Cc1cnc(CNC(=O)c2c(=O)c3ccc(N4CCCN(C)CC4)nc3n3c2sc2ccccc23)cn1
- viability, T/C [1]: 97%
- viability, T/C [13]: 46.1%
- viability, T/C [2]: 36%
- viability, T/C [14]: 27.8%
- viability, T/C [15]: 24.1%
- viability, T/C [16]: 21.2%
- viability, T/C [3]: 65.8%
- viability, T/C [17]: 43.5%
- viability, T/C [4]: 34.4%
- viability, T/C [18]: 25.5%
- viability, T/C [19]: 23.7%
- viability, T/C [20]: 16.2%
- viability, T/C [5]: 41.9%
- viability, T/C [21]: 40.9%
- viability, T/C [6]: 36.1%
- viability, T/C [22]: 26.2%
- viability, T/C [23]: 21.5%
- viability, T/C [24]: 18.4%
- viability, T/C [7]: 40.4%
- viability, T/C [25]: 32%
- viability, T/C [8]: 26.8%
- viability, T/C [26]: 26.2%
- viability, T/C [27]: 23.5%
- viability, T/C [28]: 16.3%
- viability, T/C [9]: 35.4%
- viability, T/C [29]: 32.8%
- viability, T/C [10]: 25.4%
- viability, T/C [30]: 22.8%
- viability, T/C [31]: 21.1%
- viability, T/C [32]: 15.8%
- viability, T/C [11]: 26.9%
- viability, T/C [33]: 22.5%
- viability, T/C [12]: 27.1%
- viability, T/C [34]: 23%
- viability, T/C [35]: 21.5%
- viability, T/C [36]: 15.6%

- IC50 (second compound 0.0316 µM): > 10000 nM
- IC50 (second compound 0.1 µM): 4510 nM
- IC50 (second compound 0.316 µM): 5630 nM
- IC50 (second compound 1 µM): 3780 nM
- IC50 (second compound 3.16 µM): 3520 nM
- IC50 (second compound 10 µM): < 31.6 nM
Structure (SMILES): CC1COCCN1c1cc(C2(S(C)(=N)=O)CC2)nc(-c2ccnc3[nH]ccc23)n1 (stereo not drawn) + Cc1cnc(CNC(=O)c2c(=O)c3ccc(N4CCCN(C)CC4)nc3n3c2sc2ccccc23)cn1
- viability, T/C [1]: 94.2%
- viability, T/C [13]: 78.7%
- viability, T/C [2]: 96.2%
- viability, T/C [14]: 89.1%
- viability, T/C [15]: 61.1%
- viability, T/C [16]: 50.6%
- viability, T/C [3]: 99.5%
- viability, T/C [17]: 115%
- viability, T/C [4]: 94.4%
- viability, T/C [18]: 76.2%
- viability, T/C [19]: 59.1%
- viability, T/C [20]: 35.4%
- viability, T/C [5]: 83.2%
- viability, T/C [21]: 92.2%
- viability, T/C [6]: 97.1%
- viability, T/C [22]: 81%
- viability, T/C [23]: 64.3%
- viability, T/C [24]: 36.3%
- viability, T/C [7]: 68.4%
- viability, T/C [25]: 79.2%
- viability, T/C [8]: 70.9%
- viability, T/C [26]: 61%
- viability, T/C [27]: 55.6%
- viability, T/C [28]: 30%
- viability, T/C [9]: 49.1%
- viability, T/C [29]: 56.1%
- viability, T/C [10]: 68.5%
- viability, T/C [30]: 50.1%
- viability, T/C [31]: 52.2%
- viability, T/C [32]: 34.6%
- viability, T/C [11]: 42.1%
- viability, T/C [33]: 52%
- viability, T/C [12]: 54.5%
- viability, T/C [34]: 43.9%
- viability, T/C [35]: 43.1%
- viability, T/C [36]: 29.1%

- IC50 (second compound 0.0316 µM): > 10000 nM
- IC50 (second compound 0.1 µM): 8310 nM
- IC50 (second compound 0.316 µM): 3510 nM
- IC50 (second compound 1 µM): 328 nM
- IC50 (second compound 3.16 µM): 77.8 nM
- IC50 (second compound 10 µM): < 31.6 nM
Structure (SMILES): COc1ccc([C@@H](O)c2cc(-c3ncnc4cc(N5CCOCC5)ccc34)c(F)cc2Cl)nn1 + Cc1cnc(CNC(=O)c2c(=O)c3ccc(N4CCCN(C)CC4)nc3n3c2sc2ccccc23)cn1
- viability, T/C [1]: 97%
- viability, T/C [13]: 82.7%
- viability, T/C [2]: 118%
- viability, T/C [14]: 78.1%
- viability, T/C [15]: 73.6%
- viability, T/C [16]: 72%
- viability, T/C [3]: 117%
- viability, T/C [17]: 113%
- viability, T/C [4]: 93.8%
- viability, T/C [18]: 77.3%
- viability, T/C [19]: 66%
- viability, T/C [20]: 46.4%
- viability, T/C [5]: 79.2%
- viability, T/C [21]: 84.8%
- viability, T/C [6]: 69.9%
- viability, T/C [22]: 66.3%
- viability, T/C [23]: 51.2%
- viability, T/C [24]: 36.5%
- viability, T/C [7]: 61.1%
- viability, T/C [25]: 52%
- viability, T/C [8]: 55.5%
- viability, T/C [26]: 42%
- viability, T/C [27]: 41.3%
- viability, T/C [28]: 37.3%
- viability, T/C [9]: 56.3%
- viability, T/C [29]: 48.2%
- viability, T/C [10]: 43.3%
- viability, T/C [30]: 42.9%
- viability, T/C [31]: 41.5%
- viability, T/C [32]: 39.2%
- viability, T/C [11]: 47%
- viability, T/C [33]: 45.3%
- viability, T/C [12]: 44.5%
- viability, T/C [34]: 39.9%
- viability, T/C [35]: 35.5%
- viability, T/C [36]: 30.8%
